Assay results from PMC9698483, “Berbamine Reduces Chloroquine-Induced Itch in Mice through Inhibition of MrgprX1” (International Journal of Molecular Sciences, 2022).
Each block holds one compound with its values, some of them ahead of it.

What was measured:
[1] = molecular target: T1, histamine H1 receptor (H1R) (Homo sapiens, UniProt P35367); assay: Histamine-induced activation of H1R in H1R-expressing HEK293T cells (calcium); assay type: cell-based; conditions: 30 μM compound, 10 min prior to 100 μM histamine
T1 construct: expressed in transfected cells; host or cells: HEK293T
T1 sequence (P35367 whole entry, species assumed): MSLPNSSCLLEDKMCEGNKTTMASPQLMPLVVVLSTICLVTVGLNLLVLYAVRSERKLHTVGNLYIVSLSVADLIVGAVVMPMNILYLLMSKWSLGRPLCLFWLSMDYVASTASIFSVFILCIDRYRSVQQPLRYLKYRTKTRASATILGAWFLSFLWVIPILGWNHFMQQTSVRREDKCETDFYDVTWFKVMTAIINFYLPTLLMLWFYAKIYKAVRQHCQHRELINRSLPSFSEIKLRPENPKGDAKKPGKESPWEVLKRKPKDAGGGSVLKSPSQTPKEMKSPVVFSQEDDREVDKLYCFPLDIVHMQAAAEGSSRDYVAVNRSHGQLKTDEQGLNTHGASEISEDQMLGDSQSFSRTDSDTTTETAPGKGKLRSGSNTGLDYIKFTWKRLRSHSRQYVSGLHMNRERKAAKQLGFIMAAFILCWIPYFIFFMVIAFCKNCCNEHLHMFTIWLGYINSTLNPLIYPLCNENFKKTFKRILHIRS
Experimental: (§1) To investigate the effect of berbamine on other pruritogenic GPCRs, we observed the effect of berbamine on histamine H1 receptor (H1R), histamine H4 receptor (H4R), MrgprC11, MrgprX4, PAR2, and TGR5.
(§2) Figure 3 Effects of berbamine on the activity of other pruritogenic GPCRs: (A,B) Effect of berbamine on histamine 1 receptor (H1R) and histamine 4 receptor (H4R). H1R- and H4R-expressing HEK293T cells were pretreated with 30 μM BBM for 10 min prior to 100 μM histamine treatment. […] (C) Effect of berbamine on PAR2. HT29 cells were pretreated with BBM for 10 min prior to 30 μM PAR2-AP treatment. […] (D) Effect of berbamine on MrgprC11. MrgprC11-expressing HEK293T cells were pretreated with BBM for 10 min prior to 100 μM […] treatment. (E) Effect of berbamine on MrgprX4. MrgprX4-expressing HEK293T cells were pretreated with BBM for 10 min prior to 80 μM DCA treatment. (F) Effect of berbamine on TGR5. TGR5 activity was measured using a YFP fluorescence quenching assay. CHO-K1 cells coexpressing TGR5 and a halide sensor YFP were pretreated with BBM and 80 μM DCA for 10 min prior to I^- treatment. Results were summarized as means ± S.E. (n = 6). NTC, nontransfected cells.
(§3) Intracellular calcium levels were measured using a Fluo-4 NW calcium assay kit (Invitrogen, Carlsbad, CA) as per the manufacturer’s protocol in HEK293T and HT29 cells. […]

[2] = molecular target: T2, PAR2 (Homo sapiens, UniProt P55085); assay: PAR2-AP-induced activation of PAR2 in HT29 cells (calcium); assay type: cell-based; conditions: 30 μM compound, 10 min prior to 30 μM PAR2-AP
T2 construct: endogenous in cells; host or cells: HT29
T2 sequence (P55085 26-397): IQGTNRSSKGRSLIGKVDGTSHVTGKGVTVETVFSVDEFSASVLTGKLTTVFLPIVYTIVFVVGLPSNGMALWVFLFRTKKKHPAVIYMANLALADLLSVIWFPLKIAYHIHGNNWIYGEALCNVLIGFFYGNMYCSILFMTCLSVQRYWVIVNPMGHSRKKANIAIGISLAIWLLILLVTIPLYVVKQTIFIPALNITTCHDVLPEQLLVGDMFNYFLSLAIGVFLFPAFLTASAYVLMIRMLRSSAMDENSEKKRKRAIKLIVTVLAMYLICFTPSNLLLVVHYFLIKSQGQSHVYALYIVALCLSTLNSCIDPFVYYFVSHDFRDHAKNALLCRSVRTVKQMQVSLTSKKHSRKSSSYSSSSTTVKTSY
Experimental: as §1, §2, §3

[3] = molecular target: T3, MrgprX1 (Homo sapiens, UniProt Q96LB2); assay: Intracellular calcium measurement (Fluo-4 NW) in HEK293T cells expressing MrgprX1; assay type: cell-based
T3 construct: expressed in transfected cells
T3 sequence (Q96LB2 whole entry): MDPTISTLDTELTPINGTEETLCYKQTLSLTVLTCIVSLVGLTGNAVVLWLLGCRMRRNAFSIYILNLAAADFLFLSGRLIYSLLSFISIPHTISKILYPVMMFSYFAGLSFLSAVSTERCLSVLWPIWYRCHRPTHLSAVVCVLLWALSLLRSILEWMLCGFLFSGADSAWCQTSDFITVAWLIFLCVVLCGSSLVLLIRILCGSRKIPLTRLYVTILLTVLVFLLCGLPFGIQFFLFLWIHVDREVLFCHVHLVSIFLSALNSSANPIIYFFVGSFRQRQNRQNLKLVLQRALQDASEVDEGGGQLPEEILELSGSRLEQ
Experimental: To identify novel antagonists of MrgprX1, a cell-based screening assay was established. […] Cells were treated with the indicated concentrations of CQ where the arrow indicates. (B) Summary of dose-response (mean ± S.E., n = 6). (C) Representative Fluo−4 fluorescence traces of MrgprX1 antagonist screening. Cells were treated with 30 μM of the test compounds for 10 min prior to treatment with 300 μM CQ.
Figure 2 Effect of berbamine and closantel on CQ- and ionomycin-induced increases in intracellular calcium levels: (A,B) Intracellular calcium levels were measured using Fluo−4 NW in HEK293T cells expressing MrgprX1. The cells were pretreated with the indicated concentrations of berbamine (BBM) and closantel (CLS) for 10 min prior to treatment with 300 μM CQ. (C) Summary of dose-response (mean ± S.E., n = 6). […] The cells were pretreated with the indicated concentrations of BBM and CLS for 10 min before treatment with ionomycin. (F) Summary of dose–response (mean ± S.E., n = 6).
Intracellular calcium levels were measured using a Fluo-4 NW calcium assay kit (Invitrogen, Carlsbad, CA) as per the manufacturer’s protocol in HEK293T and HT29 cells. Briefly, the cells were plated in a 96-well black-walled plate and incubated with 100 μL of assay buffer including Fluo-4 NW. […] Intracellular calcium increase was induced with the application of the indicated agonist. All modulators were dissolved in DMSO, and cells were treated with a final concentration of 1% DMSO.

[4] = molecular target: T4, MrgprA3 (Mus musculus, UniProt Q91WW3); assay: Intracellular calcium measurement in HEK293T cells expressing mouse MrgprA3; assay type: cell-based; conditions: HEK293T cells overexpressing MrgprA3; read-out: EC50 of MrgprA3 activation
T4 construct: expressed in transfected cells; host or cells: HEK293T
T4 sequence (Q91WW3 1-302): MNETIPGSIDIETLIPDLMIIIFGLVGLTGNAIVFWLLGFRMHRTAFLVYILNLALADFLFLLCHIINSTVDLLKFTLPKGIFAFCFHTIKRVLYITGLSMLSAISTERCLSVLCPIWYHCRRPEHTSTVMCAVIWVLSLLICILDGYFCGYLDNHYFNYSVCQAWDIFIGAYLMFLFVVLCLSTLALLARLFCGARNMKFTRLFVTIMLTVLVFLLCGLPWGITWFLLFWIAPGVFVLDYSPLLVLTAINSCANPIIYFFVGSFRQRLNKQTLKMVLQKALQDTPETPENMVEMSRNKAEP
Experimental: MRGPRA3 and MRGPRC11 are mouse orthologs of human MRGPRX1, and MrgprA3 is also activated by CQ, resulting in CQ-induced pruritus. To investigate the inhibitory effect of berbamine on MrgprA3, we established HEK293T cells overexpressing MrgprA3. […] We further investigated whether berbamine inhibited CQ-induced ERK1/2 phosphorylation in HEK-MrgprA3 cells. Strong and significant ERK1/2 phosphorylation was observed following CQ application, and ERK1/2 phosphorylation peaked 5 min after CQ treatment (Figure 6A,B).
Figure 5 Effect of berbamine on CQ-induced activation of MrgprA3: (A) Intracellular calcium levels were measured in HEK293T cells expressing mouse MrgprA3. Cells were treated with indicated concentrations of CQ. (B) Summary of dose–response (mean ± S.E., n = 6). (C) Cells were pretreated with indicated concentrations of berbamine for 10 min prior to 300 μM CQ treatment. (D) Summary of dose-response (mean ± S.E., n = 6). (E) Representative traces of intracellular calcium responses to BAM8−22 in HEK293T cells expressing MrgprC11. […]
(§4) Intracellular calcium levels were measured using a Fluo-4 NW calcium assay kit (Invitrogen, Carlsbad, CA) as per the manufacturer’s protocol in HEK293T and HT29 cells. […] After 1 h of incubation, Fluo-4 fluorescence was recorded with a FLUOstar Omega microplate reader equipped with syringe pumps and custom Fluo-4 excitation/emission filters (485/538 nm). […]

[5] = tested on: ERK1/2 phosphorylation through MrgprA3; assay: Immunoblot of ERK1/2 phosphorylation in HEK293T cells expressing MrgprA3; assay type: cell-based, mouse; conditions: HEK-MrgprA3 cells
[6] = tested on: CQ-resistant strain of P. falciparum; design: method as in doi:10.1002/ddr.430300405; conditions: in vitro, compound alone; read-out: IC50 antimalaria effect, CQ-resistant strain; cited from earlier work
[7] = tested on: ERK1/2 phosphorylation through MrgprX1; assay: Immunoblot of ERK1/2 phosphorylation in HEK293T cells expressing MrgprX1; assay type: cell-based, human; conditions: HEK-MrgprX1 cells
[8] = tested on: CQ-induced itch; design: method as in PMID 16510108, PMID 32536619, PMID 35066892; conditions: cited from earlier work
[9] = tested on: MrgprX1 or MrgprA3; design: method as in PMID 16510108, PMID 32536619; conditions: read-out: IC50 (potency as antagonist); cited from earlier work
[10] = tested on: histamine-induced itch; design: method as in PMID 16510108, PMID 32536619, PMID 35066892; conditions: cited from earlier work
[11] = tested on: HEK293T cells; assay: Ionomycin-induced increase in intracellular calcium levels in HEK293T cells; assay type: cell-based; conditions: 10 μM ionomycin, 10 min pretreatment
Experimental: To investigate whether berbamine and closantel affect calcium signaling pathways, we observed the effects of berbamine and closantel on CQ- and ionomycin-induced increases in intracellular calcium concentrations in HEK-MrgprX1 and HEK293T cells, respectively.
Figure 2 Effect of berbamine and closantel on CQ- and ionomycin-induced increases in intracellular calcium levels: (A,B) Intracellular calcium levels were measured using Fluo−4 NW in HEK293T cells expressing MrgprX1. The cells were pretreated with the indicated concentrations of berbamine (BBM) and closantel (CLS) for 10 min prior to treatment with 300 μM CQ. (C) Summary of dose-response (mean ± S.E., n = 6). (D,E) Intracellular calcium levels were increased with 10 μM ionomycin in HEK239T cells. The cells were pretreated with the indicated concentrations of BBM and CLS for 10 min before treatment with ionomycin. (F) Summary of dose–response (mean ± S.E., n = 6).
as §4

effect on histamine-induced activation of H1R [1]: significantly blocked
SMILES: CN1CCC(=C2c3ccccc3CCn3c(C=O)cnc32)CC1 [alcaftadine, reference compound]

SMILES: O=C1O[C@H]2[C@@H]3OC(=O)c4cc(O)c(O)c(O)c4-c4c(O)c(O)c5oc(=O)c6c(c(O)c(O)c7oc(=O)c4c5c76)-c4c(cc(O)c(O)c4O)C(=O)OC[C@H]3OC(O)[C@@H]2OC(=O)c2cc(O)c(O)c(O)c2-c2c1cc(O)c(O)c2O (mixture of isomers) [punicalagin, reference compound]
effect on PAR2-AP-induced activation of PAR2 [2]: significantly blocked

SMILES: CCN(CC)CCCC(C)Nc1ccnc2cc(Cl)ccc12 (stereo not shown) [CQ, Chloroquine]
EC50 ([3]; HEK-MrgprX1 cells, Fluo-4, read-out: EC50 of increase in intracellular calcium levels (MrgprX1 activation)): 96 µM
EC50 [4]: 234 µM
time of peak ERK1/2 phosphorylation after treatment [5]: 5 min
IC50 [6]: 203 ± 70.7 nM
time of peak ERK1/2 phosphorylation after treatment [7]: 10 min

SMILES: CC=CC(=O)N(CC)c1ccccc1C (mixture of isomers) [crotamiton]
effect on CQ-induced itch [8]: inhibits
IC50 [9]: 326 µM
effect on histamine-induced itch [10]: inhibits

SMILES: Cc1cc(C(C#N)c2ccc(Cl)cc2)c(Cl)cc1NC(=O)c1cc(I)cc(I)c1O (stereo not shown) [closantel, reference compound]
inhibition at 30 µM ([3]; HEK-293T, read-out: inhibition of the CQ-induced activation of MrgprX1 (screening)): > 90%
IC50 ([3]; pretreated 10 min prior to 300 μM CQ, read-out: IC50 of inhibition of CQ-induced MrgprX1 activation): 3.6 µM
effect on ionomycin-induced increase in intracellular calcium levels [11]: inhibited it in a dose-dependent manner
